Where “and” joins values, the source holds several entries; their conditions need not be identical. Equal values may be shown once. Entries after “also recorded” stand apart in the source; their conditions may differ. Read-outs that look alike come from different tables or passages of the source.
Key:
T3M4 cells [1] = test: Growth factor-induced proliferation (MTT), T3M4; type: cell-based, human; conditions: MTT
Method: (§1) Cell culture and MTT assay: Human pancreatic cancer cell lines are routinely grown in DMEM (Colo-357 and Mia-PaCa-2) or RPMI (Aspc-1, BxPc-3, Capan-1, and T3M4) supplemented with 10% FBS, 100 U/ml penicillin, and 100 μg/ml streptomycin (complete medium). To assess cell proliferation, the MTT test is employed. […] After 48 or 72 hours of incubation, 3-(4,5-methylthiazol-2-yl)-2,5-diphenyl-tetrazolium bromide (MTT) is added (50 μg/well) for 4 hours. Formazan products are solubilized with acidic isopropanol, and the optical density is measured at 570 nm. […] All experiments are performed in triplicate.
(§2) EGF-induced proliferation of both Mia-PaCa-2 and T3M4 cell lines in a dose-dependent manner is seen with maximal effects of +72% ±7.5% (Mia-PaCa-2) and +52% ±23% (T3M4). […] FGF-2 markedly stimulates cell growth in Mia-PaCa-2 cell lines with maximal effects of +79% ±6%, and only slightly stimulated T3M4 cell lines, with maximal effects of +7% ±4%. […] Both cell lines are less sensitive to IGF-1 stimulation compared with EGF and FGF-2, with maximal effects of +24% ±2% in Mia-PaCa-2 and +17% ±4% in. T3M4.

Mia-PaCa-2 cells [2] = test: Growth factor-induced proliferation (MTT), Mia-PaCa-2; type: cell-based, human; conditions: MTT
Method: as §1, §2

[3] = tested on: pancreatic cancer cell lines; test: FACS cell cycle analysis; type: cell-based, human; conditions: 48 hours of incubation, Compound I at GI50, compared to untreated cells
Source text: (§3) The resulting DNA histograms are interpreted using the Cell Quest Pro software (Becton Dickinson and Company, New York, USA).

[4] = tested on: TAKA-1 cells and the three pancreatic cancer cell lines; test: MTT cell growth assay, span over all four lines (Example 1); type: cell-based; conditions: span over TAKA-1 and three pancreatic cancer cell lines
Source text: (§4) Cell culture and proliferation assay: The following materials are purchased: FCS, RPMI and Dulbecco's modified Eagle medium (DMEM), trypsin-EDTA solution, penicillin-streptomycin solution from Biochrom K G (Berlin, Germany). All the other reagents are from Sigma Chemical Co. (St. Louis, Mo., USA). ASPC-1, MIA PaCA-2, human pancreatic cell lines are obtained from American Type Culture Collection (Rockville, Md.). Compound I is kindly provided by Novartis Pharma AG (Basel, Switzerland). T3M4 human pancreatic cell lines are a gift from Dr. R. S. Metzgar (Durham, N.C., USA). TAKA-1 immortalized Syrian golden hamster pancreatic ductal cells are a gift from Prof. P. Pour (University of Nebraska, Omaha, Nebr., USA). Human pancreatic cancer cell lines are routinely grown in DMEM (MIA-PaCA-2) or RPMI (ASPC-1, T3M4) supplemented with 10% FCS, 100 U/ml penicillin and 100 μg/ml streptomycin (complete medium).
(§5) TAKA-1 cells are grown in RPMI supplemented with 10% FCS, 100 U/ml penicillin and 100 μg/ml streptomycin. Cells are seeded overnight at a density of 5000 cells/well in 96-well plates and the proliferation assay is performed as described above. […] Cellular MTT is solubilized with acidic isopropanol and the optical density is measured at 570 nm using a plate reader (Dynatech MR 7000). […]
(§6) Statistical analysis: Results are expressed as mean±SD. […]

Mia-PaCa-2 cells [5] = test: GI50 by MTT assay, Mia-PaCa-2 (Example 2); type: cell-based; conditions: Homo sapiens, read-out: GI50 concentration
Source text: (§7) Material and Methods: RPMI-1640 DMEM, trypsin-EDTA, and penicillin-streptomycin are purchased from Invitrogen (Karlsruhe, Germany); FBS from PAN Biotech (Aidenbach, Germany); human recombinant PDGF, IGF-1 and FGF-2 from R&D Systems (Abingdon, United Kingdom), and EGF from Upstate Biotechnology (Hamburg, Germany). Phospho-PDGFR-beta (tyr857) and P-EGFR (tyr1173) polyclonal antibodies are purchased from Santa Cruz Biotechnology, Inc. (Santa Cruz, Calif., USA). Phospho-p44/42 MAPK (Thr202/Tyr204) antibodies are purchased from Cell Signaling Technology (Frankfurt, Germany), anti-rabbit IgG HRPO-linked antibodies and ECL immunoblotting detection reagents from Amersham Biosciences (Amersham Life Science, Amersham, UK), and anti-goat IgG-HPRO peroxidase linked antibodies from Santa Cruz Biotechnology, Inc. (Santa Cruz, Calif., USA). Complete mini-EDTA-free protease inhibitor cocktail tablets and Annexin-V-Fluos are purchased from Roche GmbH (Mannheim, Germany). All other reagents are from Sigma Chemical Company (Taufkirchen, Germany).
(§8) Cell culture and MTT assay: Human pancreatic cancer cell lines are routinely grown in DMEM (Colo-357 and Mia-PaCa-2) or RPMI (Aspc-1, BxPc-3, Capan-1, and T3M4) supplemented with 10% FBS, 100 U/ml penicillin, and 100 μg/ml streptomycin (complete medium). […] Formazan products are solubilized with acidic isopropanol, and the optical density is measured at 570 nm. […]

ASPC-1 cells [6] = test: GI50 by MTT assay, Aspc-1 (Example 2); type: cell-based; conditions: Homo sapiens, ASPC1, read-out: GI50 concentration
Source text: as §7, §8

T3M4 cells [7] = test: Propidium iodide staining of cell death, T3M4; type: cell-based, human; conditions: T3M4, Compound I at GI50, 1% FBS medium; control 5.7% ±2.8%
Source text: as §3

Capan-1 cells = test: GI50 by MTT assay, Capan-1 (Example 2); type: cell-based; conditions: Homo sapiens, Capan-1, complete medium (10% FBS), 48 h, read-out: GI50 concentration
Source text: as §7, §8

ASPC-1 cells [8] = test: MTT cell growth assay, ASPC-1 cells (Example 1); type: cell-based, human
Source text: as §4, §5, §6

CML (K562 cell lines) = conditions: other reported cancer cells, read-out: GI50 concentration; cited from earlier work
Colo-357 cells = test: GI50 by MTT assay, Colo-357 (Example 2); type: cell-based; conditions: Homo sapiens, COLO357, Colo-357, complete medium (10% FBS), 48 h, read-out: GI50 concentration
Source text: as §7, §8

colorectal cancer (HT29) = conditions: other reported cancer cells, read-out: GI50 concentration; cited from earlier work
BxPc-3 cells = test: GI50 by MTT assay, BxPc-3 (Example 2); type: cell-based; conditions: Homo sapiens, BxPc-3, complete medium (10% FBS), 48 h, read-out: GI50 concentration
Source text: as §7, §8

TAKA-1 cells = test: MTT cell growth assay, TAKA-1 cells (Example 1); type: cell-based, Syrian golden hamster; conditions: 72 h
Source text: as §4
TAKA-1 cells are grown in RPMI supplemented with 10% FCS, 100 U/ml penicillin and 100 μg/ml streptomycin. Cells are seeded overnight at a density of 5000 cells/well in 96-well plates and the proliferation assay is performed as described above. […] After 72 hours, 3-(4,5-methylthiazol-2-yl)-2,5-diphenyl-tetrazolium bromide (MTT) is added (50 μg/well) for 4 hours. Cellular MTT is solubilized with acidic isopropanol and the optical density is measured at 570 nm using a plate reader (Dynatech MR 7000). All experiments are performed in triplicates.
Statistical analysis: Results are expressed as mean±SD. For statistical analysis, the Student t-test is used. Significance is defined as p<0.05.

EGFR = molecular target: T1, EGFR (Homo sapiens, UniProt P00533); test: Western blot of EGFR phosphorylation in growth factor-conditioned cells; type: cell-based; conditions: growth factor-conditioned Mia-PaCa-2 and T3M4 cells
T1 construct: endogenous in cells; host or cells: Mia-PaCa-2 and T3M4 pancreatic cancer cells
Method: (§9) Western blot analysis: Cell culture monolayers are washed twice with ice-cold PBS and lysed with buffer containing Tris-HCl (50 mM, pH 7.4), NP-40 (1%), Na-deoxycholate (0.25%), NaCl (150 mM), EDTA (1 mM), PMSF (1 mM), Na3VO4 (1 mM), NaF (1 mM) and one tablet of complete mini-EDTA-free protease inhibitor cocktail (in 10 ml buffer). Protein concentration is determined by the BCA protein assay (Pierce Chemical Co., Rockford, Ill., USA). 30 μg of cell lysates are separated on SDS-polyacrylamide gels and electroblotted onto nitrocellulose membranes. Membranes are then incubated in blocking solution (5% nonfat-milk in 20 mM Tris-HCl, 150 mM NaCl, 0.1% Tween-20) (TBS-T), followed by incubation with the indicated antibodies at 4° C. overnight. The membranes are then washed in TBS-T and incubated with HRPO-conjugated secondary antibodies for 1 hour at room temperature. Antibody detection is performed with an enhanced chemiluminescence reaction. Statistical analysis: Results are expressed as mean±SEM. For statistical analysis, the Student's t-test is used. Significance is defined as p<0.05.

[9] = tested on: Lung cancer (6 cell lines); conditions: other reported cancer cells, read-out: GI50 concentration; cited from earlier work
pancreatic tumor cells = conditions: complete medium (10% FCS) and 1% FCS medium
Source text: as §3

T3M4 cells [10] = test: MTT cell growth assay, T3M4 cells (Example 1); type: cell-based, human
Source text: as §4, §5, §6

MIA PaCA-2 cells = test: MTT cell growth assay, MIA PaCA-2 cells (Example 1); type: cell-based; conditions: Homo sapiens, MIA PaCa-2, 72 h, Mia-Paca-2, 75 μM Compound I, read-out: Percent growth inhibition by comparison with control cell growth
Source text: as §4, §5, §6

T3M4 cells [11] = test: GI50 by MTT assay, T3M4 (Example 2); type: cell-based; conditions: Homo sapiens, T3M4, complete medium (10% FBS), 48 h, read-out: GI50 concentration
Source text: as §7, §8

Mia-PaCa-2 cells [12] = test: Propidium iodide staining of cell death, Mia-PaCa-2; type: cell-based, human; conditions: Mia-PaCa-2, Compound I at GI50, 1% FBS medium; control 10.7% ±2.5%
Source text: as §3

[13] = tested on: six tested pancreatic cancer cell lines; test: GI50 by MTT assay, span over all six pancreatic cancer cell lines; type: cell-based; conditions: Homo sapiens, read-out: GI50 concentration, range over cell lines
Source text: as §7, §8

MAPK = test: Western blot of MAPK phosphorylation in growth factor-conditioned cells; type: cell-based, human; conditions: growth factor-conditioned Mia-PaCa-2 and T3M4 cells, Western blot
Method: as §9

[14] = tested on: Lung cancer (A549 cell line); conditions: other reported cancer cells, read-out: GI50 concentration; cited from earlier work

T1 sequence (P00533 25-1210): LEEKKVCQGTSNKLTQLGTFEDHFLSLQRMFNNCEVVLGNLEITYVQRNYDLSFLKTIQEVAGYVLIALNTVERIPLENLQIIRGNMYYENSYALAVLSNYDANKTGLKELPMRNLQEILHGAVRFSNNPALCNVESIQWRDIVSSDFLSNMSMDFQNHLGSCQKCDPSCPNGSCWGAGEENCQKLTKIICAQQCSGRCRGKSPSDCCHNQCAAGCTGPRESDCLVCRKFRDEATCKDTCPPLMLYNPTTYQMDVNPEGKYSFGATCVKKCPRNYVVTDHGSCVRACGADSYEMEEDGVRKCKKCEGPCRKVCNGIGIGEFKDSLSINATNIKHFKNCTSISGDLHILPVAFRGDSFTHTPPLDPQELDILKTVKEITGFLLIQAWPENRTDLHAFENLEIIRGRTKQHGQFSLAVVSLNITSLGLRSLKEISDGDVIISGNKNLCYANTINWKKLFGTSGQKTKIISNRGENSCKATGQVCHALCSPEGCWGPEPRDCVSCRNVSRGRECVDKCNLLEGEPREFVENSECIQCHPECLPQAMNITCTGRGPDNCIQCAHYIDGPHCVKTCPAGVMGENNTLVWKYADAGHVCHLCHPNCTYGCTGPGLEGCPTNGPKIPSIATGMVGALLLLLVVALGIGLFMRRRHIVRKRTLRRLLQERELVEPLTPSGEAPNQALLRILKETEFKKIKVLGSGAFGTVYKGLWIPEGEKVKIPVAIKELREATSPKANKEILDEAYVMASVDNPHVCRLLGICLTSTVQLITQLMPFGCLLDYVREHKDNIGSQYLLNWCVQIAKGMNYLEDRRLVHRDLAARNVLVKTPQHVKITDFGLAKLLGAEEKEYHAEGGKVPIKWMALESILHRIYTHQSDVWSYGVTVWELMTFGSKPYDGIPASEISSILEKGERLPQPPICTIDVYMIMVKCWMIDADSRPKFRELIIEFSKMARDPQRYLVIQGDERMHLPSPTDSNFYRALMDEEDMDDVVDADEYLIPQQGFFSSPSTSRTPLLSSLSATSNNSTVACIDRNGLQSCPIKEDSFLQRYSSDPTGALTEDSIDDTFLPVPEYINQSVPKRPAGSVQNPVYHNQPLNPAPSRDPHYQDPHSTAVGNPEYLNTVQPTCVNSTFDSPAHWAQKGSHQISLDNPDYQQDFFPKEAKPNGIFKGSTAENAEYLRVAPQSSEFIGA

EGF: epidermal growth factor, EGF from Upstate Biotechnology
Maximal effect of growth factor on cell growth (T3M4 cells [1]; T3M4, growth factor alone (absence of Compound I), 72 hours): +52% ±23
Maximal effect of growth factor on cell growth (Mia-PaCa-2 cells [2]; Mia-PaCa-2, growth factor alone (absence of Compound I), 72 hours): +72% ±7.5

Cc1ccc(NC(=O)c2ccc(CN3CCN(C)CC3)cc2)cc1Nc1nccc(-c2cccnc2)n1 [Compound I]
Change in cell cycle pattern [3]: does not reveal any significant changes in the cell cycle pattern; also recorded: no cell cycle change
Minimal threshold effects on cell growth ([4]; 5 μM Compound I, p>0.05): −4% to −9
Maximal inhibitory effects on cell growth ([4]; 75 µM Compound I, p<0.001): −77% to −90
GI50 (Mia-PaCa-2 cells [5]; Mia-PaCa-2, complete medium (10% FBS), 48 h, MTT): 26 µM
GI50 (Mia-PaCa-2 cells [5]; Mia-PaCa-2, low serum conditions (1% FCS)): 9 µM
GI50 (ASPC-1 cells [6]; Aspc-1, complete medium (10% FBS), 48 h, MTT): 31.5 µM
GI50 (ASPC-1 cells [6]; Aspc-1, low serum conditions (1% FCS)): 20 µM
Cell death by propidium iodide staining (T3M4 cells [7]): 26.8% +16.5
GI50 (Capan-1 cells): 19 µM
Percent growth inhibition by comparison with control cell growth (ASPC-1 cells [8]; Aspc-1, 5 μM Compound I, 72 h, 5 µM): −12.9% and −4.8% and −3.7%
inhibition at 75 µM (ASPC-1 cells [8]; Homo sapiens, ASPC1, 72 h, Aspc-1, 75 μM Compound I, read-out: Percent growth inhibition by comparison with control cell growth): 85.6%
GI50 (CML (K562 cell lines)): 0.56 µM
GI50 (Colo-357 cells): 17 µM
Inhibitory effect on IGF-1-induced proliferation (T3M4 cells [1]; T3M4, IGF-1 plus Compound I at GI50, 72 hours): no significant inhibitory effects
GI50 (colorectal cancer (HT29)): 6 µM
Inhibitory effect on IGF-1-induced proliferation (Mia-PaCa-2 cells [2]; Mia-PaCa-2, IGF-1 plus Compound I at GI50, 72 hours): no significant inhibitory effects
GI50 (BxPc-3 cells): 21 µM
inhibition at 25 µM (TAKA-1 cells; Mesocricetus auratus, TAKA-1, 25 μM Compound I, read-out: Percent growth inhibition by comparison with control cell growth): 70.9%
inhibition at 75 µM (TAKA-1 cells; Mesocricetus auratus, TAKA-1, 75 μM Compound I, read-out: Percent growth inhibition by comparison with control cell growth): 90.8%
Percent growth inhibition by comparison with control cell growth (TAKA-1 cells; TAKA-1, 25 μM Compound I, 25 µM): −65% and −67.9%
Percent growth inhibition by comparison with control cell growth (TAKA-1 cells; TAKA-1, 75 μM Compound I, 75 µM): −91.5% and −90.6%
Inhibition of EGFR activation (EGFR): does not inhibit activation
GI50 [9]: ~5 µM
Apoptotic cell death (pancreatic tumor cells): No apoptotic cell death is observed
inhibition at 75 µM (T3M4 cells [10]; Homo sapiens, T3M4, 72 h, T3M4, 75 μM Compound I, read-out: Percent growth inhibition by comparison with control cell growth): 85.6%
Percent growth inhibition by comparison with control cell growth (T3M4 cells [10]; T3M4, 5 μM Compound I, 72 h, 5 µM): −12.9% and −4.8% and −3.8%
inhibition at 75 µM (MIA PaCA-2 cells): 86.6%
GI50 (T3M4 cells [11]): 25 µM
Cell death by propidium iodide staining (Mia-PaCa-2 cells [12]): 33.7±16.5%
GI50 ([13]; all six pancreatic cancer cell lines, 10% FBS/FCS medium): 17 to 31.5 µM
GI50 ([13]; pancreatic cancer cell lines, low serum conditions (1% FCS)): 9 to 20 µM
Inhibition of MAPK activation (MAPK): does not inhibit activation
GI50 [14]: 2 to 3 µM
